From patent US20260132129A1 (Genesis Therapeutics, Inc., priority 2022, published 2026)

Biological target: T1, PI3Kα H1047R (T47D cells) (Homo sapiens, UniProt P42336, H1047R)
T1 construct: endogenous in cells; host or cells: T47D cells
Assay: PI3Kα cellular assay: pAKT HTRF in T47D cells after EGF stimulation
Type: cell-based
Settings: for IC50: T47D cells (PI3Kα H1047R), pAKT S473 HTRF, EGF stimulation
In short: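 T47D cells (PIK3CA H1047R) serum-starved 16 h, then treated 1 h at 37 °C with compound (10,000 nM top, 3-fold steps to 0.5 nM). After 10 min stimulation with 20 ng/mL EGF, cells were lysed and pAKT measured by HTRF.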

T1 sequence (P42336 whole entry H1047R): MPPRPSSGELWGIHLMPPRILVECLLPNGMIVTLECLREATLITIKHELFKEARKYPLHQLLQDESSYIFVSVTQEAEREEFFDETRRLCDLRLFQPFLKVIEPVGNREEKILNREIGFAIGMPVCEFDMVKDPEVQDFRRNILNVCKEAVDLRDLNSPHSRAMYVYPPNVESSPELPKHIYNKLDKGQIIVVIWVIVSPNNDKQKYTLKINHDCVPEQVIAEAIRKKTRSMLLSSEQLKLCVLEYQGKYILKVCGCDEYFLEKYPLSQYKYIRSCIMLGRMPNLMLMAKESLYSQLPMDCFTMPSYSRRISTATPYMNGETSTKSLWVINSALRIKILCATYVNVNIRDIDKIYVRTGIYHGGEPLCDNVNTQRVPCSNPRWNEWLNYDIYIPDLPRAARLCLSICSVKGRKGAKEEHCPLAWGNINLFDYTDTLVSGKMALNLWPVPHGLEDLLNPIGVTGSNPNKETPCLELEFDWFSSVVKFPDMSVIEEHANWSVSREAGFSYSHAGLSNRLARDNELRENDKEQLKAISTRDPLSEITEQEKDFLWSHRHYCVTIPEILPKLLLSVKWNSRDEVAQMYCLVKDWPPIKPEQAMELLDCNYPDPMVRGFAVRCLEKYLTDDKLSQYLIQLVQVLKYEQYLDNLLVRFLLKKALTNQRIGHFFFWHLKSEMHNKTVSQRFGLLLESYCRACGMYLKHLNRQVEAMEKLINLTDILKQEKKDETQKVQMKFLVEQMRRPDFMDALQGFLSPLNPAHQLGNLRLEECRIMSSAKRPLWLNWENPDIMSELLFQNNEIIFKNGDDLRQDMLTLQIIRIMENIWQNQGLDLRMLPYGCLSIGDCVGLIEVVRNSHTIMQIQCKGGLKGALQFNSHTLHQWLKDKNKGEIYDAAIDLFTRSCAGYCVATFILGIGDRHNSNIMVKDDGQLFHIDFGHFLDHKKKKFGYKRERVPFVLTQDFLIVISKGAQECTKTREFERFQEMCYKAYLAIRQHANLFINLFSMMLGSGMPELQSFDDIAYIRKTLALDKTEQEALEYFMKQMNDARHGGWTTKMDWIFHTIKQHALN
T1 sequence (P27986 whole entry partner): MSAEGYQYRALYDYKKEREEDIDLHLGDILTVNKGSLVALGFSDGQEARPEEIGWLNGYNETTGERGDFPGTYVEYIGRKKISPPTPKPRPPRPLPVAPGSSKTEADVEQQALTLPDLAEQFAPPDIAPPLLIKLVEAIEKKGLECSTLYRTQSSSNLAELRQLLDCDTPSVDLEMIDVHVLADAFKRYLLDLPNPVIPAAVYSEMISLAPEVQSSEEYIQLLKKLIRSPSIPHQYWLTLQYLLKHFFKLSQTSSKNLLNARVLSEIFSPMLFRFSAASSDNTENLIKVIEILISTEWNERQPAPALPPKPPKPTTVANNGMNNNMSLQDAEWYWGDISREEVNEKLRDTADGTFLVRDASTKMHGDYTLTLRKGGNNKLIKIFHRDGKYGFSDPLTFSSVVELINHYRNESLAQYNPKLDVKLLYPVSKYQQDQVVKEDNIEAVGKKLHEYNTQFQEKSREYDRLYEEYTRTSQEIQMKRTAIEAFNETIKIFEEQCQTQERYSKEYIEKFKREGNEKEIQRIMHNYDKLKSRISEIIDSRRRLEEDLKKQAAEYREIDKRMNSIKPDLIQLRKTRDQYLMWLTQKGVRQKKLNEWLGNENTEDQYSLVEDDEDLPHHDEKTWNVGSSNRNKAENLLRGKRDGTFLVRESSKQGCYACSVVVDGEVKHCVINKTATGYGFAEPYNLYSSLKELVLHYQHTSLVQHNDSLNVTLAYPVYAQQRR

| SMILES | IC50 [nM] | T47D pAKT S473 HTRF IC50 (H1047R): T47D (H1047R) selectivity over SKBR3 (WT) |
| --- | --- | --- |
| Cc1cc([C@H](C)Nc2ccccc2S(=O)(=O)O)c2nc(-c3ccc(C4CC4)cc3)c(C3CC3)c(=O)n2c1 [Compound 1275] | > 2000 | C (C denotes ≤5-fold) |
| Cc1cc([C@H](C)Nc2ccccc2C(=O)O)c2nc(-c3ccc(-c4ccc5oc(=O)n(C)c5c4)c(C)c3)c(C)c(=O)n2c1 [Compound 1276] | < 100 | C (C denotes ≤5-fold) |
| Cc1cc([C@@H](C)Nc2ccccc2C(=O)O)c2nc(-c3cccc(F)c3)c(C(C)C)c(=O)n2c1 [Compound 1277] | 100 to 500 | A (A denotes >20-fold) |
| Cc1cc([C@H](C)Nc2ccccc2C(=O)O)c2nc(-c3cccc(F)c3)c(C(C)C)c(=O)n2c1 [Compound 1278] | > 2000 | C (C denotes ≤5-fold) |
| Cc1cc([C@@H](C)Nc2ccccc2C(=O)O)c2nc([C@H]3CCCOC3)c(C)c(=O)n2c1 [Compound 1279] | < 100 | A (A denotes >20-fold) |
| Cc1cc([C@@H](C)Nc2ccccc2C(=O)O)c2nc([C@@H]3CCCOC3)c(C)c(=O)n2c1 [Compound 1280] | < 100 | A (A denotes >20-fold) |
| Cc1cc([C@H](C)Nc2ccccc2C(=O)O)c2nc([C@@H]3CCCOC3)c(C)c(=O)n2c1 [Compound 1281] | 500 to 2000 | B (B denotes 20-fold≥value>5-fold) |
| Cc1cc([C@H](C)Nc2ccccc2C(=O)O)c2nc([C@H]3CCCOC3)c(C)c(=O)n2c1 [Compound 1282] | > 2000 | C (C denotes ≤5-fold) |
| Cc1cc([C@@H](C)Nc2ccccc2S(N)(=O)=O)c2nc(C3CCCOC3)c(C)c(=O)n2c1 (stereo partly shown) [Compound 1283] | > 2000 | C (C denotes ≤5-fold) |
| Cc1cc([C@H](C)Nc2ccccc2S(N)(=O)=O)c2nc([C@@H]3CCCOC3)c(C)c(=O)n2c1 [Compound 1285] | < 100 | A (A denotes >20-fold) |
| Cc1cc([C@H](C)Nc2ccccc2S(N)(=O)=O)c2nc([C@H]3CCCOC3)c(C)c(=O)n2c1 [Compound 1286] | 500 to 2000 | B (B denotes 20-fold≥value>5-fold) |
| Cc1cc([C@@H](C)Nc2ccccc2S(N)(=O)=O)c2nc(C3CCN(CC(C)C)CC3)c(C)c(=O)n2c1 [Compound 1287] | – | C (C denotes ≤5-fold) |
| CC(=O)N1CCC(c2ccc(-c3nc4c([C@@H](C)Nc5ccccc5C(=O)O)cc(C)cn4c(=O)c3C)cc2)CC1 [Compound 1289] | 100 to 500 | A (A denotes >20-fold) |
| CC(=O)N1CCC(c2ccc(-c3nc4c([C@H](C)Nc5ccccc5C(=O)O)cc(C)cn4c(=O)c3C)cc2)CC1 [Compound 1290] | > 2000 | C (C denotes ≤5-fold) |
| COc1cc(-c2nc3c([C@@H](C)Nc4ccccc4C(=O)O)cc(C)cn3c(=O)c2C)cn2ncc(C#N)c12 [Compound 1291] | 100 to 500 | A (A denotes >20-fold) |
| COc1cc(-c2nc3c([C@H](C)Nc4ccccc4C(=O)O)cc(C)cn3c(=O)c2C)cn2ncc(C#N)c12 [Compound 1292] | > 2000 | C (C denotes ≤5-fold) |
| Cc1cc(C(C)Nc2ccccc2C(=O)O)c2nc(C3CCCN(CC(F)F)C3)c(C)c(=O)n2c1 (stereo not shown) [Compound 1293] | 100 to 500 | A (A denotes >20-fold) |
| Cc1cc([C@@H](C)Nc2ccccc2S(N)(=O)=O)c2nc(-c3ccc(C4CCOCC4)nc3)c(C)c(=O)n2c1 [Compound 1294] | 500 to 2000 | B (B denotes 20-fold≥value>5-fold) |
| Cc1cc([C@H](C)Nc2ccccc2S(N)(=O)=O)c2nc(-c3ccc(C4CCOCC4)nc3)c(C)c(=O)n2c1 [Compound 1295] | < 100 | A (A denotes >20-fold) |
| Cc1cc([C@@H](C)Nc2ccccc2C(=O)O)c2nc(-c3cnc(C4CCOCC4)nc3)c(C)c(=O)n2c1 [Compound 1296] | 100 to 500 | A (A denotes >20-fold) |

| SMILES | IC50 [nM] | T47D pAKT S473 HTRF IC50 (H1047R): T47D (H1047R) selectivity over SKBR3 (WT) |
| --- | --- | --- |
| Cc1cc([C@H](C)Nc2ccccc2C(=O)O)c2nc(-c3cnc(C4CCOCC4)nc3)c(C)c(=O)n2c1 [Compound 1297] | > 2000 | C (C denotes ≤5-fold) |
| Cc1cc([C@@H](C)Nc2ccccc2C(=O)O)c2nc(-c3ccc4ccnn4c3)c(C)c(=O)n2c1 [Compound 1298] | < 100 | A (A denotes >20-fold) |
| Cc1cc([C@H](C)Nc2ccccc2C(=O)O)c2nc(-c3ccc4ccnn4c3)c(C)c(=O)n2c1 [Compound 1299] | > 2000 | C (C denotes ≤5-fold) |
| Cc1cc(C(C)Nc2ccccc2C(=O)O)c2nc(-c3ccc(C4CCN(C(=O)C5CC5)CC4)c(F)c3)c(C)c(=O)n2c1 (stereo not shown) [Compound 1300] | < 100 | A (A denotes >20-fold) |
| Cc1cc(C(C)Nc2ccccc2C(=O)O)c2nc(-c3ccc(C4CCNCC4)nc3)c(C)c(=O)n2c1 (stereo not shown) [Compound 1302] | > 2000 | C (C denotes ≤5-fold) |
| Cc1cc(C(C)Nc2ccccc2C(=O)O)c2nc(-c3ccc(C4CNC4)nc3)c(C)c(=O)n2c1 (stereo not shown) [Compound 1303] | > 2000 | C (C denotes ≤5-fold) |
| Cc1cc(C(C)Nc2ccccc2S(N)(=O)=O)c2nc(-c3ccc(C4CCNCC4)nc3)c(C)c(=O)n2c1 (stereo not shown) [Compound 1304] | 500 to 2000 | B (B denotes 20-fold≥value>5-fold) |
| Cc1cc(C(C)Nc2ccccc2S(N)(=O)=O)c2nc(-c3ccc(C4CNC4)nc3)c(C)c(=O)n2c1.O=C(O)C(F)(F)F (stereo not shown) [Compound 1305] | > 2000 | C (C denotes ≤5-fold) |
| Cc1cc([C@H](C)Nc2ccccc2C(=O)O)c2nc(-c3ccc(CNc4[nH]cc(C)c4C#N)c(C)c3)c(C)c(=O)n2c1 [Compound 1307] | – | B (B denotes 20-fold≥value>5-fold) |
| Cc1cc(C(C)Nc2ccccc2C(=O)O)c2nc(C3CCN(CC(F)F)CC3)cc(=O)n2c1 (stereo not shown) [Compound 1308] | 100 to 500 | A (A denotes >20-fold) |
| Cc1cc([C@@H](C)Nc2ccccc2S(N)(=O)=O)c2nc([C@@H]3CCCN(CC(F)F)C3)c(C)c(=O)n2c1 [Compound 1309] | 500 to 2000 | B (B denotes 20-fold≥value>5-fold) |
| Cc1cc([C@@H](C)Nc2ccccc2S(N)(=O)=O)c2nc([C@H]3CCCN(CC(F)F)C3)c(C)c(=O)n2c1 [Compound 1310] | > 2000 | C (C denotes ≤5-fold) |
| Cc1cc([C@H](C)Nc2ccccc2S(N)(=O)=O)c2nc([C@@H]3CCCN(CC(F)F)C3)c(C)c(=O)n2c1 [Compound 1311] | > 2000 | C (C denotes ≤5-fold) |
| Cc1cc([C@H](C)Nc2ccccc2S(N)(=O)=O)c2nc([C@H]3CCCN(CC(F)F)C3)c(C)c(=O)n2c1 [Compound 1312] | < 100 | A (A denotes >20-fold) |
| Cc1cc(C(C)Nc2ccccc2C(=O)O)c2nc(-c3ccc(CC4CCN(C(=O)C5CC5)CC4)c(F)c3)c(C)c(=O)n2c1 (stereo not shown) [Compound 1313] | 100 to 500 | A (A denotes >20-fold) |
| Cc1cc([C@@H](C)Nc2ccccc2C(=O)O)c2nc(-c3ccc(CC4CCN(C(=O)C5CC5)CC4)c(F)c3)c(C)c(=O)n2c1 [Compound 1314] | 100 to 500 | A (A denotes >20-fold) |
| Cc1cc([C@H](C)Nc2ccccc2C(=O)O)c2nc(-c3ccc(CC4CCN(C(=O)C5CC5)CC4)c(F)c3)c(C)c(=O)n2c1 [Compound 1315] | – | C (C denotes ≤5-fold) |
| Cc1cc([C@@H](C)Nc2ccccc2C(=O)O)c2nc(-c3ccc(C4CCC(C(=O)C5CC5)CC4)c(F)c3)c(C)c(=O)n2c1 (stereo partly shown) [Compound 1318] | – | C (C denotes ≤5-fold) |
| Cc1cccc(-c2nc3c([C@H](C)Nc4ccccc4S(C)(=O)=O)cc(C)cn3c(=O)c2C)c1 [Compound 1320] | – | B (B denotes 20-fold≥value>5-fold) |
